Laboratory results as given in patent US8013006B2.

Tested on: HCV replicon
Test: microbe, parasite or virus in culture
Format: cell-based
Details: Hepatitis C virus, 48 h, read-out: Replicon IC5Os μM

| Structure (SMILES) | IC50 [µM] |
| --- | --- |
| CCn1c(-c2ccc(NC(=O)C3CC3)cc2)c(C#N)c2ccccc21 [Compound 854] | 0.5 to 2 |
| CCn1c(-c2ccc(NC(=O)C(C)C)cc2)c(C#N)c2ccccc21 [Compound 855] | 0.5 to 2 |
| CCn1c(-c2ccc(NC(=O)C(C)C)cc2)c(C#N)c2cc(OC)ccc21 [Compound 858] | < 0.5 |
| CCn1c(-c2ccc(C(=O)N3CC3)cc2)c(C#N)c2cc(OC)ccc21 [Compound 861] | 0.5 to 2 |
| CCn1c(-c2ccc(N3CCOC3=O)cc2)c(C#N)c2ccc(OC)cc21 [Compound 863] | 0.5 to 2 |

Same assay, conditions: bicistronic HCV replicon, determined by firefly luciferase signal, cells cultured with compound for 2 days; read-out: Replicon IC5Os

| Structure (SMILES) | IC50 [µM] |
| --- | --- |
| CCCS(=O)(=O)Nc1ccc(-c2c(C#N)c3ccc(OC(F)F)cc3n2C2CCC2)cc1 [Compound 812] | 0.5 to 2 |
| N#Cc1c(-c2ccc(NS(=O)(=O)C3CC3)cc2)n(C2CCC2)c2cc(OC(F)F)ccc12 [Compound 813] | < 0.5 |
| CCCNC(=O)Nc1cccc(-c2c(C#N)c3ccc(OC)cc3n2Cc2ccccc2)c1 [Compound 817] | > 2 |
| CCn1c(-c2cc(N3CCOC3=O)ccc2F)c(C#N)c2ccc(OC(C)C)cc21 [Compound 820] | 0.5 to 2 |
| CCn1c(-c2ccc(F)c(N3CCOC3=O)c2)c(C#N)c2ccc(OC(C)C)cc21 [Compound 821] | > 2 |
| COCCOC(=O)Nc1ccc(-c2c(C#N)c3ccc(OC(F)F)cc3n2C2CCC2)cc1 [Compound 823] | > 2 |
| CCCn1c(-c2ccc(NC(=O)OC(C)C)cc2)c(C#N)c2ccc(OC(F)F)cc21 [Compound 824] | > 2 |
| CCCn1c(-c2ccc(NC(=O)OCCOC)cc2)c(C#N)c2ccc(OC(F)F)cc21 [Compound 825] | > 2 |
| CCCn1c(-c2ccc(NC(=O)OCCF)cc2)c(C#N)c2ccc(OC(F)F)cc21 [Compound 826] | 0.5 to 2 |
| N#Cc1c(-c2ccc(N3CCCS3(=O)=O)cc2)[nH]c2cc(OC(F)(F)F)ccc12 [Compound 829] | 0.5 to 2 |
| CCn1c(-c2ccc(OC(F)F)cc2)c(C#N)c2ccc(NS(=O)(=O)CC)cc21 [Compound 830] | 0.5 to 2 |
| CCCS(=O)(=O)Nc1ccc2c(C#N)c(-c3ccc(OCC)cc3)n(CC)c2c1 [Compound 836] | > 2 |
| CCOc1ccc(-c2c(C#N)c3ccc(NS(=O)(=O)C4CC4)cc3n2CC)cc1 [Compound 837] | > 2 |
| CCn1c(-c2ccc(N(C)S(=O)(=O)C3CC3)cc2)c(C#N)c2ccc(OCCF)cc21 [Compound 840] | > 2 |
| CCCS(=O)(=O)N1CCN(c2c(C#N)c3ccc(C(F)(F)F)cc3n2CC)CC1 [Compound 841] | > 2 |
| CCn1c(N2CCN(S(=O)(=O)c3ccccc3)CC2)c(C#N)c2ccc(C(F)(F)F)cc21 [Compound 843] | > 2 |
| CCCn1c(-c2ccc(NC(=O)NC(C)C)cc2)c(C#N)c2ccc(OC)cc21 [Compound 846] | 0.5 to 2 |
| CCCCNC(=O)Nc1ccc(-c2c(C#N)c3ccc(OC)cc3n2CCC)cc1 [Compound 847] | 0.5 to 2 |
| CCCn1c(-c2ccc(NC(=O)OC)cc2)c(C#N)c2ccc(OC)cc21 [Compound 849] | 0.5 to 2 |
| CCCn1c(-c2ccc(N(CC)S(=O)(=O)CC)cc2)c(C#N)c2ccc(OC)cc21 [Compound 852] | 0.5 to 2 |
| CCn1c(-c2ccc(C(=O)N3CC3)cc2)c(C#N)c2ccc(OC)cc21 [Compound 853] | < 0.5 |
| CCn1c(-c2ccc(NC(=O)CCl)cc2)c(C#N)c2cc(OC)ccc21 [Compound 856] | > 2 |
| CCn1c(-c2ccc(NC(=O)COC)cc2)c(C#N)c2cc(OC)ccc21 [Compound 857] | 0.5 to 2 |
| CCn1c(-c2ccc(C(=O)NC)cc2)c(C#N)c2cc(OC)ccc21 [Compound 860] | 0.5 to 2 |
| CCn1c(-c2ccc(C(=O)N3CCC3)cc2)c(C#N)c2cc(OC)ccc21 [Compound 862] | > 2 |
| CCn1c(-c2cccc(N3CCOC3=O)c2)c(C#N)c2ccc(OC)cc21 [Compound 864] | 0.5 to 2 |
| CCCn1c(-c2ccc(N3CCCS3(=O)=O)cc2)c(C=O)c2ccc(OC)cc21 [Compound 865] | > 2 |

Tested on: not given
Test: not given
Details: not given

| Structure (SMILES) | melting point [°C] |
| --- | --- |
| CCn1c(-c2ccc(NC(=O)COC)cc2)c(C#N)c2ccc(OC(C)C)cc21 | 169 to 173 |
